Laboratory results published in patent publication US8293729B2 (Boehringer Ingelheim International GmbH, priority 2009, dated 2012).

molecular target: T1, human GPR119 receptor (Homo sapiens, UniProt Q8TDV5, S329A/T327A); test: cAMP assay (LANCE cAMP-384) in HEK293 cells stably expressing mutant human GPR119 receptor; format: cell-based; settings: HEK293, 20 min; at 10 μM; printed in EC50 column of the 36th table; read-out: stimulation in % at 10 μM
T1 construct: N-terminal leader […]; expressed in transfected cells
T1 sequence (Q8TDV5 with tags, fused parts or gaps T327A/S329A): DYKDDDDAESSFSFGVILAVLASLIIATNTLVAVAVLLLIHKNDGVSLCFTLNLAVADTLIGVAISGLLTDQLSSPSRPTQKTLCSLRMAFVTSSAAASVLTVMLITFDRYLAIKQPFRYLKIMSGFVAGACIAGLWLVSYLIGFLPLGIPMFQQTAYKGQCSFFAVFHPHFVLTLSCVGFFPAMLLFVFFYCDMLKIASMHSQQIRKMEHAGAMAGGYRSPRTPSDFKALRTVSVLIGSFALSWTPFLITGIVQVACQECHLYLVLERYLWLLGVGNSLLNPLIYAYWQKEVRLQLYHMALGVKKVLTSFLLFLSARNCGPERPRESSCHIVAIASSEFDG
Procedure, shortened: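 HEK293 cells stably expressing human GPR119 (T327A/S329A, modified N-terminus), 1000 cells/well, exposed to compound for 20 min at 37° C. cAMP quantified by LANCE TR-FRET against a standard curve; EC50 from 12 points, 30 μM to 100 pM, or % stimulation at 10 μM.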

CN(C)c1ccc(CN2CCC(ON=C3CCN(c4ccc(S(C)(=O)=O)cc4F)CC3)CC2)cc1 [Example 66-36] gave an activation at 10 µM of 83%.

same assay, conditions: HEK293, 20 min; single concentration 10 μM; given where no EC50 value could be determined; read-out: % stimulation at 10 μM

Work on CC(C)OC(=O)N1CCC(ON=C2CCN(c3nccc(CO)c3F)CC2)CC1 [Example 2-64] yielded an activation at 10 µM of 79%.

same assay, conditions: cAMP accumulation, HEK293 cells stably expressing mutant human GPR119; read-out: EC50

Going from CC(CO)CNC(=O)c1cc(F)c(N2CCC(=NOC3CCN(C(=O)OC(C)C)CC3)CC2)cc1F (stereo not shown) [Example 2-77] to CNCCNC(=O)c1cc(F)c(N2CCC(=NOC3CCN(C(=O)OC(C)C)CC3)CC2)cc1F [Example 31-1, 4-{1-[2,5-Difluoro-4-(2-methylamino-ethylcarbamoyl)-phenyl]-piperidin-4-ylideneaminooxy}-piperidine-1-carboxylic acid isopropyl ester], the EC50 rises from 47 nM to 424 nM (9-fold).

Compared with CC(C)OC(=O)N1CCC(ON=C2CCN(c3c(C(=O)O)ccnc3Cl)CC2)CC1 [Example 2-59], Cc1cc(N2CCC(=NOC3CCN(C(=O)OC(C)C)CC3)CC2)ccn1 [Example 2-6] is lower in EC50: over 10000 nM for the first, 1480 nM for the second.

COC(=O)CCNCc1cc(F)c(N2CCC(=NOC3CCN(C(=O)OC(C)C)CC3)CC2)cc1F [Example 5-7] and CC(C)OC(=O)N1CCC(ON=C2CCN(c3cc(F)c(CNCCC(=O)O)cc3F)CC2)CC1 [Example 7-1, 4-(1-{4-[(2-Carboxy-ethylamino)-methyl]-2,5-difluoro-phenyl}-piperidin-4-ylideneaminooxy)-piperidine-1-carboxylic acid isopropyl ester] are the same in EC50: 1150 nM for the first, 1150 nM for the second.

CC(C)OC(=O)N1CCC(ON=C2CCN(c3cc(F)c(N4CCCC4=O)cc3F)CC2)CC1 [Example 22-7] and CC(C)OC(=O)N1CCC(ON=C2CCN(c3cc(F)c(CN4CCOC4=O)cc3F)CC2)CC1 [Example 15-1, 4-{1-[2,5-DIFLUORO-4-(2-OXO-OXAZOLIDIN-3-YLMETHYL)-PHENYL]-PIPERIDIN-4-YLIDENEAMINOOXY}-PIPERIDINE-1-CARBOXYLIC ACID ISOPROPYL ESTER] are within 1.5-fold of each other in EC50: 157 nM for the first, 140 nM for the second.

Compared with CC(C)OC(=O)N1CCC(ON=C2CCN(c3cc(F)c(-n4ccnc4)cc3F)CC2)CC1 [Example 22-1, 4-[1-(2,5-Difluoro-4-imidazol-1-yl-phenyl)-piperidin-4-ylideneaminooxy]-piperidine-1-carboxylic acid isopropyl ester], CC(C)OC(=O)N1CCC(ON=C2CCN(c3cc(F)c(C(C)O)cc3F)CC2)CC1 (stereo not shown) [Example 50-1, 4-{1-[2,5-Difluoro-4-(1-hydroxy-ethyl)-phenyl]-piperidin-4-ylideneaminooxy}-piperidine-1-carboxylic acid isopropyl ester] is 9.1-fold lower in EC50: 435 nM for the first, 48 nM for the second. The second is the more potent here.

Compared with CC(=O)Nc1cc(F)c(N2CCC(=NOC3CCN(C(=O)OC(C)C)CC3)CC2)cc1F [Example 35-1, 4-[1-(4-Acetylamino-2,5-difluoro-phenyl)-piperidin-4-ylideneaminooxy]-piperidine-1-carboxylic acid isopropyl ester], CC(C)OC(=O)N1CCC(ON=C2CCN(c3cc(F)c(NC(=N)N)cc3F)CC2)CC1 [Example 36-1, 4-[1-(2,5-Difluoro-4-guanidino-phenyl)-piperidin-4-ylideneaminooxy]-piperidine-1-carboxylic acid isopropyl ester] is 78-fold higher in EC50: 17 nM for the first, 1320 nM for the second. The first is the more potent here.

First: CC(C)OC(=O)N1CCC(ON=C2CCN(c3cc(F)c(CS(=O)(=O)C4CC4)cc3F)CC2)CC1 [Example 14-3]
Second: CC(C)OC(=O)N1CCC(ON=C2CCN(c3cc(F)c(CNS(N)(=O)=O)cc3F)CC2)CC1 [Example 17-1]
The EC50 of the first is 16-fold lower: 19 nM for the first, 312 nM for the second. The first is the more potent here.

CC(C)OC(=O)N1CCC(ON=C2CCN(c3cc(F)c(Cn4cnc5cccnc54)cc3F)CC2)CC1 [Example 14-6] and Cc1ccc(-c2cc(F)c(N3CCC(=NOC4CCN(C(=O)OC(C)C)CC4)CC3)cc2F)nc1 [Example 27-26] are within 1.5-fold of each other in EC50: 647 nM for the first, 861 nM for the second.

Compared with CC(C)OC(=O)N1CCC(ON=C2CCN(c3ccc(S(C)(=O)=O)cc3)CC2)CC1 [Example 2-16], CC(C)OC(=O)N1CCC(ON=C2CCN(c3cc(F)c(C(N)=O)cc3F)CC2)CC1 [Example 2-32] is 13-fold lower in EC50: 328 nM for the first, 25 nM for the second. The second is the more potent here.

CC(C)OC(=O)N1CCC(ON=C2CCN(c3cc(F)c(C(=O)NCC(=O)O)cc3F)CC2)CC1 [Example 30-1, 4-{1-[4-(Carboxymethyl-carbamoyl)-2,5-difluoro-phenyl]-piperidin-4-ylideneaminooxy}-piperidine-1-carboxylic acid isopropyl ester] showed an EC50 of 1130 nM.

same assay, conditions: the 15th table; read-out: EC50

COCCNC(=O)c1cc(F)c(N2CCC(=NOC3CCN(C(=O)OC(C)C)CC3)CC2)cc1F [Example 29-12] gave an EC50 of 12 nM.

same assay, conditions: the 19th table; unit inferred; read-out: EC 50

In order of rising EC50:
1. CCc1cnc(N2CCC(ON=C3CCN(c4cc(F)c(C(=O)NCC5CCNCC5)cc4F)CC3)CC2)nc1 [Example 29-128]  70 nM
2. CCc1cnc(N2CCC(ON=C3CCN(c4cc(F)c(C(=O)NCC5CCCN5C)cc4F)CC3)CC2)nc1 (stereo not shown) [Example 29-138]  185 nM

same assay, conditions: the 29th table; read-out: EC50

CC(C)OC(=O)N1CCC(ON=C2CCN(c3ccc(CO)cc3F)CC2)CC1 [Example 52-3] was tested, and the EC50 was 128 nM.

same assay, conditions: the 32nd table; read-out: EC50

CS(=O)(=O)c1ccc(N2CCC(=NOC3CCN(c4ccnc(Cl)n4)CC3)CC2)c(F)c1 [Example 63-5] and CS(=O)(=O)c1ccc(N2CCC(=NOC3CCN(c4nccc(C(F)(F)F)n4)CC3)CC2)c(F)c1 [Example 63-11] cannot be ordered by EC50: over 10000 nM for the first, over 10000 nM for the second.

Going from CS(=O)(=O)c1ccc(N2CCC(=NOC3CCN(c4cc(C(F)(F)F)ccn4)CC3)CC2)c(F)c1 [Example 63-10] to CS(=O)(=O)c1ccc(N2CCC(=NOC3CCN(c4nccs4)CC3)CC2)c(F)c1 [Example 63-7], the EC50 falls from over 10000 nM to 447 nM. The second is the more potent here.

same assay, conditions: the 33rd table; read-out: EC50

Going from C#CCOC(=O)N1CCC(ON=C2CCN(c3ccc(S(C)(=O)=O)cc3F)CC2)CC1 [Example 64-3] to CC(N)COC(=O)N1CCC(ON=C2CCN(c3ccc(S(C)(=O)=O)cc3F)CC2)CC1 (stereo not shown) [Example 64-35], the EC50 rises from 446 nM to over 10000 nM.

Going from CCC(CC)COC(=O)N1CCC(ON=C2CCN(c3ccc(S(C)(=O)=O)cc3F)CC2)CC1 [Example 64-49] to COC(=O)[C@@H](C)COC(=O)N1CCC(ON=C2CCN(c3ccc(S(C)(=O)=O)cc3F)CC2)CC1 [Example 64-23], the EC50 rises from 54 nM to 928 nM (17-fold). The first is the more potent here.

Going from CS(=O)(=O)c1ccc(N2CCC(=NOC3CCN(C(=O)OCCN4CCOCC4)CC3)CC2)c(F)c1 [Example 64-43] to CC(OC(=O)N1CCC(ON=C2CCN(c3ccc(S(C)(=O)=O)cc3F)CC2)CC1)C1CC1 (stereo not shown) [Example 64-5], the EC50 falls from over 10000 nM to 90 nM.

CC(CN(C)C)OC(=O)N1CCC(ON=C2CCN(c3ccc(S(C)(=O)=O)cc3F)CC2)CC1 (stereo not shown) [Example 64-14] and CS(=O)(=O)c1ccc(N2CCC(=NOC3CCN(C(=O)O[C@H]4CNC(=O)C4)CC3)CC2)c(F)c1 [Example 64-11] cannot be ordered by EC50: over 10000 nM for the first, over 10000 nM for the second.

same assay, conditions: the 34th table, compounds 65-1 to 65-24; read-out: EC50

CCN(CC)C(=O)CN1CCC(ON=C2CCN(c3ccc(S(C)(=O)=O)cc3F)CC2)CC1 [Example 65-1, N,N-Diethyl-2-{4-[1-(2-fluoro-4-methanesulfonyl-phenyl)-piperidin-4-ylideneaminooxy]-piperidin-1-yl}-acetamide] and CC(C)NC(=O)CN1CCC(ON=C2CCN(c3ccc(S(C)(=O)=O)cc3F)CC2)CC1 [Example 65-4] cannot be ordered by EC50: over 10000 nM for the first, over 10000 nM for the second.

CC(C)S(=O)(=O)N1CCC(ON=C2CCN(c3ccc(S(C)(=O)=O)cc3F)CC2)CC1 [Example 65-16] was tested, and the EC50 was over 10000 nM.

same assay, conditions: the 36th table, compounds 66-1 to 66-51; read-out: EC50

Compared with CS(=O)(=O)c1ccc(N2CCC(=NOC3CCN(Cc4ccccc4C#N)CC3)CC2)c(F)c1 [Example 66-19], CS(=O)(=O)c1ccc(N2CCC(=NOC3CCN(Cc4ccc(Br)cc4F)CC3)CC2)c(F)c1 [Example 66-44] is lower in EC50: over 10000 nM for the first, 753 nM for the second. The second is the more potent here.

Cc1cc(CN2CCC(ON=C3CCN(c4ccc(S(C)(=O)=O)cc4F)CC3)CC2)n(C)n1 [Example 66-13] and Cn1cc(CN2CCC(ON=C3CCN(c4ccc(S(C)(=O)=O)cc4F)CC3)CC2)cn1 [Example 66-10] cannot be ordered by EC50: over 10000 nM for the first, over 10000 nM for the second.

Cc1ccc(CN2CCC(ON=C3CCN(c4ccc(S(C)(=O)=O)cc4F)CC3)CC2)c(F)c1 [Example 66-47] showed an EC50 of 909 nM.

same assay, conditions: the 37th table, compounds 66-52 to 66-64; read-out: EC50

In order of rising EC50:
1. CCCCc1ccc(CN2CCC(ON=C3CCN(c4cc(F)c(S(C)(=O)=O)cc4F)CC3)CC2)cc1 [Example 66-57]  29 nM
2. CS(=O)(=O)c1cc(F)c(N2CCC(=NOC3CCN(Cc4ccc(Cl)cc4)CC3)CC2)cc1F [Example 66-56]  50 nM

same assay, conditions: the 43rd table, compounds 75-1 to 75-38; read-out: EC50

In order of rising EC50:
1. CC(C)OC(=O)N1CCC(ON=C2CCN(c3cc(F)c(CC(=O)N4CC[C@H](N)C4)cc3F)CC2)CC1 [Example 75-20]  45 nM
2. CNC1CCN(C(=O)Cc2cc(F)c(N3CCC(=NOC4CCN(C(=O)OC(C)C)CC4)CC3)cc2F)CC1 [Example 75-21]  126 nM
3. CC(C)OC(=O)N1CCC(ON=C2CCN(c3cc(F)c(CC(=O)N4CCCC(CN(C)C)C4)cc3F)CC2)CC1 (stereo not shown) [Example 75-37]  155 nM
4. CC(C)OC(=O)N1CCC(ON=C2CCN(c3cc(F)c(CC(=O)N4CCC[C@@H]4CN4CCCC4)cc3F)CC2)CC1 [Example 75-28]  246 nM

same assay, conditions: the 44th table, compounds 77-1 to 77-14; read-out: EC50

In the case of CCc1cnc(N2CCC(ON=C3CCN(c4cc(F)c(CC(=O)N5CC[C@H](N(C)C)C5)cc4F)CC3)CC2)nc1 [Example 77-5], the EC50 is reported as 6 nM.
